What was measured:
CD147 [1] = test: Pulse chase analysis of CD147 protein maturation in MM1S cells; type: cell-based, human; conditions: 35S-Met/Cys pulse-chase
Experimental: In a complementary approach using pulse-chase analysis, CD147 protein maturation from the immature core-glycosylated to the mature high-glycosylated form necessary for membrane localization was investigated. […] Importantly, treatment with MLN4924, an inhibitor of Cullin-RING ubiquitin ligases, had no effect on CD147 stability or processing, thereby further underscoring a ubiquitin-independent effect of CRBN on CD147 (FIG. 13h).
Labelling of MM1S cells with ^35S-Met/Cys was essentially performed as described previously. […] Newly translated proteins were metabolically labeled for 45 Minutes with methionine- and cysteine-free DMEM containing 0.2 mCi/ml [35S]-Met/Cys. Cells were then washed three times with PBS (37° C.) and incubated with DMEM for up to 24 hours.

VEGF = VEGF secretion in MM cell culture supernatants (ELISA); type: cell-based, human; conditions: 10 μM, 96 h
Text: (§1) Supernatants were collected and snap-frozen for subsequent analysis. VEGF and MMP7 concentrations were, determined in an enzyme linked immunosorbent assay (ELISA) using kits RAB0507, and RAB0369 (VEGF and MMP7 respectively, both Sigma) according to the manufacturer's instructions. Results were normalized to protein concentration of corresponding cell lysates.

[2] = test system: del(5q) MDS bone marrow derived CD34+ cells; test: Apoptosis (Annexin V/PI) in in vitro propagated del(5q) MDS CD34+ cells; type: cell-based, human; conditions: 10 μM lenalidomide, erythroid differentiation, non-erythroid vs early erythroid (CD36+) cells
Experimental: Mononuclear cells from bone marrow aspirates were enriched for CD34^+ cells by magnetic bead selection (MACS, MiltenylBiotech) according to the manufacturer's instructions. CD34^+ cells were differentiated along the erythroid lineage essentially as known in the art. […] On day 7, 2 IU/ml erythropoietin (EPO Janssen-CILAG GmbH) was added to the cultures to stimulate erythropoiesis. Half medium changes were performed every third day and cells were harvested on day 14.
Cells were collected and washed with Annexin/PI buffer containing […], 1.62 mM CaCl2. Cell pellets were stained with CD34-FITC (BD Pharmingen, clone 581/CD34), CD147-PE (BD Pharmingen, done HIM6), CD33-PC5.5 (Beckmann Coulter, clone D3HL60.251), CD45 PE Cy7 (eBioscience, clone H130), CD36-APC Cy7 (BioLegend, clone 336213), primary CD235α-biotin (eBioscience, clone HIR2) and secondary streptavidin eFluor®450 (eBioscience) antibodies according to manufacturer's instructions. The combination of APC Annexin V (BD Pharmingen) and PI was added for the determination of apoptosis and necrosis. Single stained samples were used for compensation.
Flow cytometry was performed on a CyAn ADP LxP8 (Coulter-Cytomation) and data were analyzed using FlowJo software (TreeStar Inc.).

MM cell lines [3] = test: Cell proliferation / survival of MM cells (trypan blue exclusion); type: cell-based, human; conditions: sensitive cells (MM1S), 10 μM lenalidomide, 72 hours
Experimental: MM cells were subjected to treatment with lenalidomide/DMSO for the indicated times or infected with lentiviral-shRNA. On days indicated, proliferation was assessed using the trypan blue exclusion method. Results are presented as ratios to DMSO, wildtype or sh_scramble controls.

CD147 [4] = test: CD147 surface expression on erythropoiesis in MDS patient bone marrow (flow cytometry); type: in vivo, human; conditions: del(5q) MDS patients on lenalidomide treatment vs untreated del(5q) and non-del(5q) MDS
Text: After informed consent, bone marrow samples from patients with MDS were collected in heparin, lysed with Versalyse® (Beckman Coulter, Krefeld, Germany), stained with anti-human monoclonal fluorochrome-conjugated antibodies and analyzed by flow-cytometry on a Cytomics FC 500 analyzer (Beckman Coulter). The following antibodies were used: Beckman Coulter: CD45-ECD (clone J33), CD33-PE (clone D3HL60.251), CD14-PECy5 (clone RM052), CD7-PE (clone 8H8.1), CD3-PECy5 (clone UCHT1), CD19-PECy7 (clone J4,119), CD7-PE, GlyA-PE (clone 11E4B-7-6), CD34-PECy7 (clone 581) and CD147-FITC (clone HIM6) from BD Biosciences. Using a CD45 vs, SSC gating strategy monocytes, lymphocytes, granulocytes, progenitor cells and CD45low/-GlyA+ cells were identified, Gates were then placed on CD19+ B-cells, CD3+ and CD3-CD7+ NK cells within the lymphocyte gate; on CD33+ granulocytes and CD14+ monocytes; on CD45low/CD33+ CD34+ progenitor cells and on CD45low/-GlyA+ erythropoiesis. CD147 expression of CD45low/-GlyA+ erythropoiesis was then determined by histogram gating. Data are represented as median fluorescence intensity of CD147 relative to isotype-matched control. Data were analyzed using Kaluza® Flow Analysis Software (Beckman Coulter).

MMP7 = MMP7 secretion in MM cell culture supernatants (ELISA); type: cell-based, human; conditions: 10 μM, 96 h
Text: as §1

CD147 [5] = test: Flow cytometry of CD147 cell surface expression in MM1S cells; type: cell-based, human; conditions: lenalidomide 10 μM
Experimental: The secondary antibody was […] anti mouse IgG. After washing, stained cells were analysed for CD147 expression using a FACSCalibur (Becton Dickinson).

MM cell lines [6] = test: Intra- and extracellular lactate measurement in MM cells; type: cell-based, human
Experimental: For analysis of intra- and extracellular lactate, lenalidomide or DMSO treated cells were centrifuged down. For extracellular lactate, the supernatant was collected and frozen; normal cell culture medium was used as control for normalization. For measurement of intracellular lactate, cell pellets were lysed in lysis buffer. Lactate content in cell lysates as well as in the supernatants were analysed with the cobas 8000 (Roche).

CD147/MCT1 complex = test: Immunoblot analysis of CD147 and MCT1 protein levels in myeloma cells; type: cell-based, human
Experimental: HEK 293T and HeLa cells were grown in Dulbecco's modified Eagle's Medium (DMEM), each media containing 10% fetal bovine serum. (FBS). The human multiple myeloma cell lines MM1.S, U266, KMS-12-BM, RPMI 8226 and JJN3 were cultured in RPMI-1640 with 10% FBS. […] Sf9 insect cells (Life technologies) were cultured in Sf-900 II serum-free medium (SFM, Life technologies) supplemented with 10% heat-inactivated FBS and 10 μg/ml gentamycin. High Five cells (Invitrogen) were cultured in Express Five SFM supplemented with 10 mM L-glutamine and 10 μg/ml gentamycin. All cells tested mycoplasma negative by a PCR detection method.
Cell samples were lysed in lysis buffer (NaCl 150 mM, Tris-HCl 50 mM, MgCl2 5 mM, EDTA 1 mM, INP-40 0.1%, Glycerol 5% and inhibitors) for whole cell lysates, immunoprecipitations or pulldown experiments. Details of extract preparation, immunoprecipitation, and immunoblotting, were previously described. Briefly, the cellular lysates were centrifuged 15 min at 14 000 rpm at 4° C. to separate from cellular debris. Protein concentration in the supernatants was measured before Laemmli buffer was added. The lysates were separated by SDS-PAGE and blotted onto PVDF (polyvinylidene difluoride) membranes. After blotting, PVDF membranes were stained With. Ponceau solution to evaluate protein loading. After washing and blocking unspecific bindings in 5% milk; the membranes were incubated with primary antibodies. After addition of horseradish peroxidase coupled secondary antibodies, western blot membranes were developed using the ECL (enhanced chemoluminescence) method (SuperSignal West reagents from Thermo Scientific). For immunoprecipitations (IPs), cell lysates were incubated with Flag-M2 agarose beads (Sigma) for Flag-IPs, HA-7 agarose beads (Sigma) for HA-IPs, or protein-A sepharose beads (GE Healthcare) together with primary rabbit antibodies for binding of endogenous proteins (e.g. for CRBN-IP). For the experiments using a protein cross linker, DSS (Pierce) was added to the cells to a final concentration of 1 mM for 45 minutes at RT. The Cross linker was quenched by addition of Tris-HCl, pH 7.5 20 mM and cell lysis was performed as described, with the only exception of HEPES buffer 50 mM, pH 7.5 instead of Tris-HCl buffer. After washing the beads four times in lysis buffer, Laemmli buffer was added and proteins were analyzed by SDS-electrophoresis.

[7] = lenalidomide-sensitive MM cell lines

How did the “CD147 de novo synthesis” value (CD147 [1]) turn out when `Nc1cccc2c1CN(C1CCC(=O)NC1=O)C2=O` (centres unmarked) [lenalidomide] was run?
Its value is “no effect”.

What about the “CD147 glycosylation as readout for maturation and membrane localization” value (CD147 [1]) of the same compound?
Its value is “substantially impaired”.

What about the VEGF secretion (VEGF; [7]) of the same compound?
Its VEGF secretion is “significantly reduced”.

And the VEGF secretion (VEGF; resistant MM cell lines)?
Its VEGF secretion is “only minor effects”.

And the “Lenalidomide-induced apoptosis by cell compartment” value [2]?
Its value is “largely restricted to early erythroid cells”.

And the “Anti-myeloma effect of lenalidomide under induced overexpression of CD147 and MCT1” value (MM cell lines [3])?
Its value is “attenuated”.

What about the “CD147 surface expression in the erythropoietic compartment” value (CD147 [4]) of the same compound?
Its value is “attenuated to the level of non-del(5q) MDS samples”.

What about the MMP7 secretion (MMP7; [7]) of the same compound?
The MMP7 secretion was “significantly reduced”.

And the MMP7 secretion (MMP7; resistant MM cell lines)?
The MMP7 secretion was “only minor effects”.

And the “CD147 cell surface expression” value (CD147 [5])?
The value was “decreased”.

What about the Intracellular lactate levels (MM cell lines [6]; [7]) of the same compound?
The Intracellular lactate levels was “significantly elevated”.

What about the Intracellular lactate levels (MM cell lines [6]; resistant MM cell lines) of the same compound?
The Intracellular lactate levels was “only minor effects”.

And the “Level of immature, core-glycosylated form of CD147” value (CD147/MCT1 complex; MM1S cells, 10 μM lenalidomide, time course)?
The value was “progressive accumulation”.

What about the “Dose dependence of CD147 and MCT1 destabilization” value (CD147/MCT1 complex; MM1S cells, different concentrations, 72 hours) of the same compound?
Its value is “destabilizes CD147 and MCT1 in a dose dependent manner”.

What about the “Destabilization of CD147/MCT1” value (CD147/MCT1 complex; MM1S cells, 10 μM lenalidomide, 100 nM pomalidomide, 100 μM thalidomide) of the same compound?
Its value is “destabilize CD147/MCT1”.

And the “CD147 and MCT1 expression upon lenalidomide exposure” value (CD147/MCT1 complex; lenalidomide-resistant MM lines (KMS12BM, RPMI 8226))?
Its value is “remained unchanged”.

And the “CD147 and MCT1 stability upon lenalidomide exposure” value (CD147/MCT1 complex; lenalidomide-sensitive MM lines (MM1S, U266))?
Its value is “destabilization of CD147 and MCT1”.
